# From patent US12582640B2, “Treatment of lower respiratory tract infection with tradipitant” (Vanda Pharmaceuticals Inc., priority 2020, dated 2026)
# Test system: severe or critical COVID-19 infection
# Assay: Randomized, double-blind, placebo-controlled study of tradipitant in hospitalized patients with COVID-19 pneumonia (interim analysis, ITT population)
# Assay type: in vivo, human
# Set-up: Mortality KM estimate: concentration or dose not given beside the values
# Conditions: for Mortality hazard ratio (95% CI) / Hazard ratio (95% CI), responder as improvement of 2 or more points / Odds ratio (95% CI), ordinal score at Day 7 / Odds ratio (95% CI), ordinal score at Day 28: tradipitant vs placebo; for Mortality hazard ratio (95% CI) / Hazard ratio (95% CI), responder as improvement of 2 or more points: Cox model; for Odds ratio (95% CI), ordinal score at Day 7 / Odds ratio (95% CI), ordinal score at Day 28: proportional odds model
# From the text: A randomized, double-blind, placebo-controlled study investigates the efficacy of tradipitant in the treatment of inflammatory lung injury and pneumonia associated with severe or critical COVID-19 infection, and improvement of clinical outcomes associated with severe or critical COVID-19 infection. Such improvements in clinical outcomes include reduction in long term pulmonary function deficits and pulmonary fibrosis.
# Methods: Prospective participants attend a screening visit on study day −1 to 0 to assess the prospective patient's eligibility to participate. All enrolled patients are asked to undertake an initial physical examination and must satisfy inclusion and exclusion criteria before being enrolled into the study. A total sample size of 300 patients (150 per arm) provides approximately 93% power to detect a 20% difference of normalization in fever and oxygen saturation, assuming 50% and 70% normalization rates in placebo and tradipitant treatment groups respectively, based on a two-sided Fisher's Exact Test at a 5% significance level.
# Inclusion criteria include: adults aged 18-90; confirmed laboratory COVID-19 infection by RT-PCR; confirmed pneumonia by chest radiograph or computed tomography; fever defined as temperature ≥36.6° C. armpit, ≥37.2° C. oral, or ≥37.8° C. rectal; and oxygen saturation of less than 92% on room air OR on mechanical ventilation OR increased work of breathing (WOB) on exam without respiratory support OR respiratory rate greater than 20 per minute. Exclusion criteria include: recent use of illicit drugs or alcohol abuse; known allergy to tradipitant or other neurokinin-1 antagonists; pregnancy; known HIV, HBV, or HCV infection; malignant tumor, other serious systemic diseases; and inability to provide informed consent or to have an authorized relative or designated person provide informed consent, or to comply with the protocol requirements.
# Patients who meet the inclusion-exclusion criteria are randomized 1:1 to treatment with either 85 mg tradipitant twice daily (bid) per os (PO, i.e. orally) or matching placebo under double-blind conditions, in addition to standard of care for COVID-19 infection according to protocol at the treating hospital. In both arms, treatment with study medication continues for 14 days or until discharge from the hospital. In both tradipitant treatment and placebo study arms, patients are given one capsule of study medication to be taken orally every day in the morning prior to or at 9:00 am and one capsule of study medication to be taken orally every day in the evening approximately 12 hours later (±1 hour). Patients in the tradipitant treatment arm receive capsules containing 85 mg tradipitant, as well as spray-dried lactose monohydrate, microcrystalline cellulose (Avicel PH102 and PH200), povidone, croscarmellose sodium, sodium lauryl sulfate, and magnesium stearate as excipients. The tradipitant capsules are white opaque, hard gelatin capsules. Placebo capsules are provided in size and appearance identical to those containing tradipitant.
# For patients requiring administration via nasogastric tube, the following procedure is used: 1) empty contents of one 85 mg capsule in a glass mortar and grind using a pestle until all granules are thoroughly crushed; 2) add 10 mL of water while continuing to grind to obtain a uniform dispersion; 3) draw up entire dispersion into a suitable syringe; 4) connect syringe tip to nasogastric tube and push entire syringe contents; and 5) rinse mortar and pestle with 5 mL of water and repeat steps 3) and 4). The crushing procedure results in the preparation of a uniform dispersion in water, which can then be administered through a nasogastric tube without clogging.
# Patient assessments are performed in accordance with the schedule of evaluations detailed in Table 1 below.
# Mortality is assessed as the proportion of participants with in-hospital mortality, and is evaluated per treatment arm. […]
# [1] = Day 7, baseline ordinal score 3
# [2] = Day 7, baseline ordinal score 4
# [3] = Day 28, baseline ordinal score 2
# [4] = Day 28, baseline ordinal score 3
# [5] = Day 28, baseline ordinal score 4
# [6] = ITT overall, >1 benefit for tradipitant
# [7] = baseline ordinal score 2 (N = 4)
# [8] = baseline ordinal score 3 (N = 13)
# [9] = baseline ordinal score 4 (N = 9)
# [10] = tradipitant arm, 85 mg bid PO plus standard of care, interim analysis
smiles,measurement,setting,value
"O=C(c1ccccc1Cl)c1cccnc1-c1nnn(Cc2cc(C(F)(F)F)cc(C(F)(F)F)c2)c1-c1ccncc1 [Tradipitant, {2-[1-(3,5-bistrifluoromethylbenzyl)-5-pyridin-4-yl-1H-[1,2,3]triazol-4-yl]-pyridin-3-yl}-(2-chlorophenyl)-methanone]",Mortality KM estimate,"Day 7, ITT overall",9.8%
same,No. of responders (improvement of 2 or more points),"Day 7, ITT overall (N = 28)",13
same,Mortality hazard ratio (95% CI),"Day 7, ITT overall, <1 benefit for tradipitant",2.65
same,Mortality KM estimate,"Day 7, baseline ordinal score 2",25.0%
same,No. of responders (improvement of 2 or more points),"Day 7, baseline ordinal score 2 (N = 4)",3
same,Mortality KM estimate,[1],0.0%
same,No. of responders (improvement of 2 or more points),"Day 7, baseline ordinal score 3 (N = 13)",2
same,"Hazard ratio (95% CI), responder as improvement of 2 or more points",[1],2.19
same,Mortality KM estimate,[2],25.0%
same,No. of responders (improvement of 2 or more points),"Day 7, baseline ordinal score 4 (N = 9)",6
same,"Hazard ratio (95% CI), responder as improvement of 2 or more points",[2],2.23
same,Mortality hazard ratio (95% CI),[2],3.14
same,Mortality KM estimate,"Day 28, ITT overall",20.4%
same,No. of responders (improvement of 2 or more points),"Day 28, ITT overall (N = 28)",16
same,Mortality hazard ratio (95% CI),"Day 28, ITT overall, <1 benefit for tradipitant",1.03
same,Mortality KM estimate,[3],50.0%
same,No. of responders (improvement of 2 or more points),"Day 28, baseline ordinal score 2 (N = 4)",3
same,Mortality hazard ratio (95% CI),[3],1.84
same,Mortality KM estimate,[4],9.1%
same,No. of responders (improvement of 2 or more points),"Day 28, baseline ordinal score 3 (N = 13)",4
same,"Hazard ratio (95% CI), responder as improvement of 2 or more points",[4],1.08
same,Mortality hazard ratio (95% CI),[4],0.95
same,Mortality KM estimate,[5],25.0%
same,No. of responders (improvement of 2 or more points),"Day 28, baseline ordinal score 4 (N = 9)",7
same,"Hazard ratio (95% CI), responder as improvement of 2 or more points",[5],1.59
same,Mortality hazard ratio (95% CI),[5],1.24
same,Median time to responder (95% CI),"Day 28 analysis, ITT overall (N = 28), listed as tradipitant",10 days
same,No. of deaths by day 7,ITT overall (N = 28),2
same,No. of deaths by day 28,ITT overall (N = 28),4
same,"Odds ratio (95% CI), ordinal score at Day 7",[6],1.05
same,"Odds ratio (95% CI), ordinal score at Day 28",[6],1.01
same,No. of deaths by day 7,[7],1
same,No. of deaths by day 28,[7],2
same,"Odds ratio (95% CI), ordinal score at Day 7",baseline ordinal score 2,0.43
same,"Odds ratio (95% CI), ordinal score at Day 28",baseline ordinal score 2,0.43
same,No. of deaths by day 7,[8],0
same,No. of deaths by day 28,[8],1
same,"Odds ratio (95% CI), ordinal score at Day 7",baseline ordinal score 3,2.69
same,"Odds ratio (95% CI), ordinal score at Day 28",baseline ordinal score 3,2.21
same,No. of deaths by day 7,[9],1
same,No. of deaths by day 28,[9],1
same,"Odds ratio (95% CI), ordinal score at Day 7",baseline ordinal score 4,0.40
same,"Odds ratio (95% CI), ordinal score at Day 28",baseline ordinal score 4,0.62
same,mortality rate,[10],14.2%
same,patients showing clinical improvement (at least a 2 point improvement in the 7 point ordinal scale),[10],57%
